Experimental data from US20260166039A1 (SCHRÖDINGER, INC., priority 2022, published 2026).
Where two headings read alike, the source gives them in different places.

What was measured:
[1] = molecular target: T1, Wee1 kinase domain (Homo sapiens, UniProt P30291); assay: Wee1 Kinase Biochemical Assay (ADP-Glo); conditions: 15 uM ATP
T1 construct: Wee1 kinase domain was purchased from Carna (catalog #05-177); purchased Carna 05-177
Procedure, shortened: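 ADP-Glo detection of ADP produced after 4 h at 25° C by 1 nM Wee1 kinase domain on 2 ng/mL poly(Lys,Tyr 4:1) with 15 uM ATP. Buffer: 40 mM Tris-HCl, 20 mM MgCl2, 0.1 mg/mL BSA, 2 mM DTT. Inhibition is relative to DMSO (high) and saturating Wee1 inhibitor (low) controls.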

[2] = tested on: phosphorylation of Cdc2 Y15 (Wee1 substrate) in A427 cells; assay: Phosphorylated Cdc2 MSD Electrochemiluminescence Assay; type: cell-based; conditions: Homo sapiens
Method: Phosphorylated Cdc2 MSD Electrochemiluminescence Assay
The effect of Wee1 inhibitors on cellular phosphorylation of the Wee1 substrate Cdc2 was determined using the following protocol:
A total of 40,000 A427 cells in 100 uL culture medium (1640 medium+10% Fetal bovine serum+1% Penicillin-Streptomycin) were plated in 96-well cell culture plates. 3-fold serial dilutions of test compounds were prepared in completed PBS at 25× final concentration. After 20 hours, the plates were removed and 4 μL of each were added to the cells and incubated with shaking for 30 minutes at 37° C., 5% CO2. Each concentration was tested in duplicate. After a total 6 hours incubation, plates were removed and centrifuged for 5 minutes and 100 uL of supernatant from each well was removed. Cells were washed with 200 μL PBS and lysed with 50 μL MSD lysis buffer (Meso Scale Diagnostics) supplied with 1× complete ULTRA cocktail inhibitor (Roche).
To detect phosphorylation of Cdc2 Y15, 30 μL of capture antibody solution (CST catalog #9116S 1:200) was added into each well of the MSD plate (MSD catalog #L15XB-6), sealed and incubated at 4° C. with shaking (450 rpm) overnight. The antibody solution was removed, wells blocked with BSA solution and plates washed three times with PBST, followed by addition of 30 μl of cell lysate per well. After 2 hours of incubation, plates were washed three times with PBST. 30 μL of 1× detection antibody solution (CST catalog #4539S 1:200) was then added to each well and incubated for 1 hour. Plates were washed three times with PBST and 30 μL of 1× secondary antibody solution (MSD, catalog #:R32AB-1, 1:5000) was added to each well and incubated for 1 hour. Plates were washed three times with PBST and 150 μL of 1× Read Buffer T (MSD, catalog #R92TC-1) was added to each well of the MSD plate. The electrochemiluminescence signal was measured on a MESO SECTOR S600 plate reader. The percentage of remaining phosphorylated Cdc2 signal was calculated following the equation below.
[formula] • HC (high control): Cells treated with DMSO • Cpds: Cells treated with test compounds • LC (low control): Cells treated with positive control Wee1 inhibitor

[3] = class symbols, 1 nM Wee1 enzyme, 4 hours at 25° C.
[4] = A-427, class symbols, read-out: A427 pCDC2 MSD IC50

T1 sequence (P30291 299-569 limits assumed): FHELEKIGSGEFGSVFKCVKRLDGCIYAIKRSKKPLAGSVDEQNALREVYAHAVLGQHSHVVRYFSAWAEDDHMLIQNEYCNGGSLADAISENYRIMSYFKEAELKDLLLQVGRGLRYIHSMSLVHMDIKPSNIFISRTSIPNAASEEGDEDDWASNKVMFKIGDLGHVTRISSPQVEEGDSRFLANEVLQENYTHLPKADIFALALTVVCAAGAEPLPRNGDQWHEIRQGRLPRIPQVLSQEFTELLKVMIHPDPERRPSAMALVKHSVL

Row | Structure (SMILES) | IC50 [1, 3] [nM] | IC50 [2, 4] [nM] | IC50 ([1]; Wee1 kinase domain, ADP-Glo) [nM] | IC50 ([2]; A-427, pCDC2 MSD) [nM]
1 | CN1CC2(C1)CN(c1ccc(Nc3ncc4c(n3)N(c3cccc(P(C)(C)=O)n3)[C@@H]3CC(C)(C)OC[C@]43C)cc1)C2 (single isomer, unassigned) [Example 775] | < 10 | 100 to 1000 |  | 
2 | C[C@H]1COC(=O)N1c1cccc(N2c3nc(Nc4ccc(N5CCN(C)CC5)nc4)ncc3[C@@]3(C)COC(C)(C)C[C@@H]23)n1 (single isomer, unassigned) [Example 241] |  |  | < 10 | 100 to 1000
3 | CNCc1cccc(N2c3nc(NC(=O)[C@@H]4C[C@H]4c4cnn(C)c4)ncc3[C@@]3(C)COC(C)(C)C[C@@H]23)n1 [Example 764, (1R,2R)-2-(1-methyl-1H-pyrazol-4-yl)-N-((4bR,8aR)-4b,7,7-trimethyl-9-(6-((methylamino)methyl)pyridin-2-yl)-4b,5,7,8,8a,9-hexahydropyrano[3′,4′:4,5]pyrrolo[2,3-d]pyrimidin-2-yl)cyclopropane-1-carboxamide] | < 10 | 100 to 1000 |  | 
4 | CN[C@H](c1cccc(N2c3nc(Nc4ccc(N5CCN(C)CC5)cc4)ncc3[C@@]3(C)COC(C)(C)C[C@@H]23)n1)C(F)(F)F [Example 755, (4bR,8aR)-4b,7,7-trimethyl-N-(4-(4-methylpiperazin-1-yl)phenyl)-9-(6-((R)-2,2,2-trifluoro-1-(methylamino)ethyl)pyridin-2-yl)-4b,5,7,8,8a,9-hexahydropyrano[3′,4′:4,5]pyrrolo[2,3-d]pyrimidin-2-amine] | < 10 | 100 to 1000 |  | 
5 | CN1CCC[C@@H]1c1ccc(Nc2ncc3c(n2)N(c2cccc(N=S(C)(C)=O)n2)[C@@H]2CC(C)(C)OC[C@]32C)cc1 (single isomer, unassigned) [Example 127] |  |  | < 10 | < 100
6 | CN=[S@](C)(=O)c1cccc(N2c3nc(Nc4ccc(N5CCN(C)CC5)cc4)ncc3[C@@]3(C)COC(C)(C)C[C@@H]23)n1 (single isomer, unassigned) [Example 766] | < 10 | 100 to 1000 |  | 
7 | C[C@H]1COC(=O)N1c1cccc(N2c3nc(Nc4ccc(N5C[C@H]6C[C@@H](C5)N6C)cc4)ncc3[C@@]3(C)COC(C)(C)C[C@@H]23)n1 (single isomer, unassigned) [Example 352] |  |  | < 10 | 100 to 1000
8 | CC1(C)C[C@H]2N(c3cccc(N=S(C)(C)=O)n3)c3nc(Nc4ccn(C5CC5)c(=O)c4)ncc3[C@@]2(C)CO1 (single isomer, unassigned) [Example 380] |  |  | < 10 | 100 to 1000
9 | CN1CCC[C@@H]1c1cccc(N2c3nc(Nc4ccn(C5CCOCC5)c(=O)c4)ncc3[C@@]3(C)COC(C)(C)C[C@@H]23)n1 (single isomer, unassigned) [Example 395] |  |  | < 10 | 100 to 1000
10 | Cc1cc(Nc2ncc3c(n2)N(c2cccc(N4C(=O)OC[C@@H]4C)n2)[C@@H]2CC(C)(C)OC[C@]32C)ccc1O[C@H]1CCN(C)C1 (single isomer, unassigned) [Example 345] |  |  | < 10 | 100 to 1000
11 | [2H]C([2H])([2H])N1CCC(c2ccc(Nc3ncc4c(n3)N(c3cccc(N=S(C)(C)=O)n3)[C@@H]3CC(C)(C)OC[C@]43C)cc2)CC1 (single isomer, unassigned) [Example 162] |  |  | < 10 | < 100
12 | CC1(C)C[C@H]2N(c3cccc(N=S(C)(C)=O)n3)c3nc(Nc4ccn(C5CCOCC5)c(=O)c4)ncc3[C@@]2(C)CO1 (single isomer, unassigned) [Example 233] |  |  | < 10 | 100 to 1000
13 | C[C@H]1COC(=O)N1c1cccc(N2c3nc(Nc4ccc(N5CC6(CN(C)C6)C5)cc4)ncc3[C@@]3(C)COC(C)(C)C[C@@H]23)n1 (single isomer, unassigned) [Example 355] |  |  | < 10 | 100 to 1000
14 | C[C@H]1COC(=O)N1c1cccc(N2c3nc(Nc4ccc(C5CN(C)C5)cc4)ncc3[C@@]3(C)COC(C)(C)C[C@@H]23)n1 (single isomer, unassigned) [Example 311] |  |  | < 10 | 100 to 1000
15 | CC1(C)C[C@H]2N(c3cccc(N=S(C)(C)=O)n3)c3nc(Nc4ccn([C@@H]5CCOC5)c(=O)c4)ncc3[C@@]2(C)CO1 (single isomer, unassigned) [Example 375] |  |  | < 10 | 100 to 1000
16 | Cc1cc(Nc2ncc3c(n2)N(c2cccc(N4CCCC4=O)n2)[C@@H]2CC(C)(C)OC[C@]32C)ccc1N1C[C@H]2C[C@@H]1CN2C [Example 658, 1-(6-((4bR,8aR)-4b,7,7-trimethyl-2-((3-methyl-4-((1R,4R)-5-methyl-2,5-diazabicyclo[2.2.1]heptan-2-yl)phenyl)amino)-4b,7,8,8a-tetrahydropyrano[3′,4′:4,5]pyrrolo[2,3-d]pyrimidin-9(5H)-yl)pyridin-2-yl)pyrrolidin-2-one] | < 10 | 100 to 1000 |  | 
17 | C[C@H]1COC(=O)N1c1cccc(N2c3nc(Nc4ccc(OC5CCNCC5)nc4)ncc3[C@@]3(C)COC(C)(C)C[C@@H]23)n1 (single isomer, unassigned) [Example 325] |  |  | < 10 | 100 to 1000
18 | CN1CCN(c2ccc(Nc3ncc4c(n3)N(c3ccn(C(F)F)n3)[C@@H]3CC(C)(C)OC[C@]43C)cc2)CC1 (single isomer, unassigned) [Example 720] | < 10 | 100 to 1000 |  | 
19 | CNCc1cccc(N2c3nc(Nc4ccc([C@]5(C)CCN(C)C5=O)cc4)ncc3[C@@]3(C)COC(C)(C)C[C@@H]23)n1 (single isomer, unassigned) [Example 78] |  |  | < 10 | 100 to 1000
20 | C[C@H]1COC(=O)N1c1cccc(N2c3nc(Nc4ccc([C@H]5CCNC5)cc4)ncc3[C@@]3(C)COC(C)(C)C[C@@H]23)n1 (single isomer, unassigned) [Example 279] |  |  | < 10 | 100 to 1000
21 | CC1(C)C[C@H]2N(c3cccc([C@H]4CCCN4)n3)c3nc(Nc4ccn(C5CCOCC5)c(=O)c4)ncc3[C@@]2(C)CO1 (single isomer, unassigned) [Example 394] |  |  | < 10 | 1000 to 10000
22 | Cc1cc(Nc2ncc3c(n2)N(c2cccc(C(C)(C)O)n2)[C@@H]2CC(C)(C)OC[C@]32C)ccc1N1C[C@@H]2C[C@H]1CN2C (single isomer, unassigned) [Example 429] | < 10 | 100 to 1000 |  | 
23 | CN1CC[C@H]2CN(c3ccc(Nc4ncc5c(n4)N(c4cccc(N6CCCC6=O)n4)[C@@H]4CC(C)(C)OC[C@]54C)cc3)C[C@H]21 [Example 688, 1-(6-((4bR,8aR)-4b,7,7-trimethyl-2-((4-((3aS,6aS)-1-methylhexahydropyrrolo[3,4-b]pyrrol-5(1H)-yl)phenyl)amino)-4b,7,8,8a-tetrahydropyrano[3′,4′:4,5]pyrrolo[2,3-d]pyrimidin-9(5H)-yl)pyridin-2-yl)pyrrolidin-2-one] | < 10 | < 100 |  | 
24 | C[C@H]1COC(=O)N1c1cccc(N2c3nc(Nc4ccc([C@H]5CCNC5)nc4)ncc3[C@@]3(C)COC(C)(C)C[C@@H]23)n1 (single isomer, unassigned) [Example 259] |  |  | < 10 | 100 to 1000
25 | CN1Cc2cc(Nc3ncc4c(n3)N(c3cccc(N=S(C)(C)=O)n3)[C@@H]3CC(C)(C)OC[C@]43C)cnc2C1 (single isomer, unassigned) [Example 188] |  |  | < 10 | < 100
26 | C[C@H]1COC(=O)N1c1cccc(N2c3nc(Nc4ccc([C@]5(C)CCN(C)C5)cc4)ncc3[C@@]3(C)COC(C)(C)C[C@@H]23)n1 (single isomer, unassigned) [Example 351] |  |  | < 10 | < 100
27 | CN1C[C@H]2C[C@@H]1CN2c1ccc(Nc2ncc3c(n2)N(c2cccc(N4CCOC4=O)n2)[C@@H]2CC(C)(C)OC[C@]32C)cc1F [Example 668, 3-(6-((4bR,8aR)-2-((3-fluoro-4-((1R,4R)-5-methyl-2,5-diazabicyclo[2.2.1]heptan-2-yl)phenyl)amino)-4b,7,7-trimethyl-4b,7,8,8a-tetrahydropyrano[3′,4′:4,5]pyrrolo[2,3-d]pyrimidin-9(5H)-yl)pyridin-2-yl)oxazolidin-2-one] | < 10 | 100 to 1000 |  | 
28 | CNCc1cccc(N2c3nc(Nc4ccc(C5CCOCC5)cc4)ncc3[C@@]3(C)COC(C)(C)C[C@@H]23)n1 (single isomer, unassigned) [Example 35] |  |  | < 10 | 100 to 1000
